# Measured values as given in patent publication US20250003968A1, “ACTIVITY-BASED CELL SORTING” (MASSACHUSETTS INSTITUTE OF TECHNOLOGY, priority 2021, published 2025).
# *1 amine or outer side, *2 acyl side, *3 side chain or, on linkers, in order; H or OH if unused. Where no end group is shown, it is not given here. [ ]: non-standard residue; d: D form. The star is where a group is joined. 5FAM = O=C1OC2(c3ccc(O)cc3Oc3cc(O)ccc32)c2ccc(C(=O)*)cc21; Suc = O=C(CCC(=O)[*:2])[*:1]; Cy3 = Cy3 fluorophore label; Cy5 = Cy5 fluorophore label; Ahx = NCCCCCC(=O)O
# How the values were obtained:
# [1] = system: homogenates of prostates from Hi-Myc PCa mice; assay: Multiplexed bead-coupled substrate screen against prostate homogenates; type: biochemical, mouse; details: pre-treatment of Hi-Myc prostate homogenates
# Procedure: We turned to the Hi-Myc genetically engineered mouse model of PCa, wherein c-Myc is overexpressed in the murine prostate, resulting in invasive PCa. We selected a panel of 18 peptides previously found by our group to be recognized by a diverse array of metallo- and serine proteases dysregulated in PCa^20 and appended each with a unique, mass-encoded reporter molecule. We coupled these barcoded substrates to magnetic beads via a non-cleavable poly(ethylene glycol) (PEG) linker and incubated the bead cocktail against homogenates of prostates from PCa mice and from age-matched healthy controls (FIG. 20a). Beads were pulled down via magnetic separation, and liberated reporter molecules in the supernatant were measured by mass spectrometry, enabling quantification of substrate cleavage. Unsupervised hierarchical clustering of the cleavage data yielded two distinct clusters corresponding to prostates from PCa mice and prostates from healthy mice (FIG. 20b).
# [2] = system: tissue-resident proteases in Eml4-Alk lung tissue sections; assay: In situ zymography with AZPs on fresh-frozen lung tissue sections; type: biochemical, mouse; details: for effect of inhibitor on Z1 tissue labeling: Eml4-Alk lung sections, 1 mM marimastat, 400 μM AEBSF or inhibitor cocktail; for AZP labeling of Eml4-Alk lung tissue: individual AZPs on consecutive sections, 7 weeks after tumor induction
# Procedure: Mice were euthanized by isoflurane overdose. Lungs were then filled with undiluted optimal-cutting-temperature (OCT) compound through catheterization of the trachea; the trachea was subsequently clamped; and lungs were extracted. Individual lobes were dissected and then immediately embedded and frozen in optimal-cutting-temperature (OCT) compound (Sakura).
# Cryosectioning was performed at the Koch Institute Histology Core. Prior to staining, slides were air dried, fixed in ice-cold acetone for 10 minutes, and then air dried. After hydration in PBS (3×5 minutes), tissue sections were blocked in protease assay buffer (50 mM Tris, 300 mM NaCl, 10 mM CaCl2), 2 mM ZnCl2, 0.02% (v/v) Brij-35, 1% (w/v) BSA, pH 7.5) for 30 minutes at room temperature. Blocking buffer was aspirated, and solution containing fluorescently labeled AZPs (1 μM each AZP) and a free poly-arginine control (polyR, 0.1 μM) diluted in the protease assay buffer was applied. Slides were incubated in a humidified chamber at 37° C. for 4 hours. For inhibited controls, 400 μM AEBSF (Sigma Aldrich), 1 mM marimastat (Sigma Aldrich), or protease inhibitor cocktail (P8340, Sigma Aldrich) spiked with AEBSF and marimastat was added to the buffer at both the blocking and cleavage assay steps. For uninhibited conditions, dimethyl sulfoxide (DMSO) was added to the assay buffer to a final concentration of 3% (v/v). For co-staining experiments, primary antibodies (E-cadherin, AF748, R&D Systems, 4 μg/mL; vimentin, ab92547, Abcam, 0.5 μg/mL; CD31, AF3628, R&D Systems, 10 μg/mL; desmin, ab227651, Abcam, 1.32 μg/mL) were included in the AZP solution. Following AZP incubation, slides were washed in PBS (3×5 minutes), stained with Hoechst (5 μg/mL, Invitrogen) and the appropriate secondary antibody if relevant (Invitrogen, 1:500), washed in PBS (3×5 minutes), and mounted with ProLong™ Diamond Antifade Mountant (Invitrogen). Slides were scanned on a Pannoramic 250 Flash III whole slide scanner (3DHistech).
# The Z1 AZP (10 μmol/L) was incubated with recombinant fibroblast activation protein (FAP) in FAP assay buffer (50 mM Tris, 1 M NaCl, pH 7.5) overnight at 37° C. to run the cleavage reaction to completion. After precleavage with recombinant FAP, the AZP solution was diluted to a final peptide concentration of 0.1 μM in protease assay buffer. Cognate intact Z1 AZP (1 μmol/L) and precleaved Z1 AZP, each with a free polyR control (0.1 μM), were applied to fresh-frozen Eml4-Alk lung tissue sections (slide preparation described above) and incubated at 37° C. for 4 hours. After AZP incubation, slides were washed, stained with Hoechst, mounted, and scanned.
# AZP and immunofluorescence staining was quantified in QuPath™ 0.2.3[53] and in ImageJ™ (NIH, v1.53). To perform cell-by-cell analysis, cell segmentation was performed using automated cell detection on the DAPI (nuclear) channel. For quantification of activity inhibition, AZP staining was calculated as a fold change of the mean nuclear AZP signal over the mean nuclear polyR signal. All nuclei within an individual tumor were averaged across that given tumor. Nuclei with a polyR intensity of less than 3 were excluded from analysis. For quantification of AZP intensity based on cell morphology and marker expression, cells were annotated as “vimentin-positive, spindle” if they were spindle-shaped and expressed vimentin; “E-cadherin-positive, cuboidal” if they were cuboidal-shaped and expressed E-cadherin; “vimentin-positive, round” if they were rounded and expressed vimentin. A random forest classifier was trained on all annotated cells (at least 20 cells per class) using multiple cellular features, including nuclear area and eccentricity, and mean cellular fluorescence intensity across all channels. The trained classifier was then applied to all cells across all tumors in the tissue section, and mean cellular fluorescence intensity was quantified.
# [3] = system: serine proteases of mouse colon tissue sections; assay: AZP staining of frozen mouse colon sections; type: biochemical
# Source text: We validated the AZP principle on colon tissue, whose epithelial cells secrete serine proteases including urokinase plasminogen activator (uPA). We therefore synthesized a Cy5-labeled AZP, termed PZ2 (SEQ ID NO:176), containing a serine protease-cleavable linker. Because similar peptides had never been applied directly to frozen tissue sections, it was unknown whether AZPs would nonspecifically bind to the tissue, or whether proteolytic cleavage would be required for AZP binding. We therefore pre-cleaved PZ2 with a serine protease, mesotrypsin (PRSS3) and applied it to a frozen section of mouse colon for 30 minutes. As a binding control, we also applied intact, uncleaved PZ2 to a consecutive section of mouse colon.
# Having verified that proteolytic cleavage induces AZP binding, we next sought to validate whether AZPs could enable localization of protease activity in situ (FIG. 19a). Specifically, it was unknown whether frozen tissue sections would maintain sufficient protease activity to induce probe cleavage or whether cleaved probes would bind at the site of cleavage rather than diffusing to a distant site. We applied PZ2 and a binding control (free polyR-Cy7) to fresh-frozen sections of mouse colon (FIG. 19b). […] These findings verified that protease activity in the tissue section was necessary and sufficient to activate AZPs. Strikingly, we found strong colocalization of PZ2 with E-cadherin, a specific marker of epithelial cells, providing evidence that cleaved AZPs bind at the site of cleavage, rather than diffusing to a distant site (FIG. 19d).
# [4] = system: pulmonary protease activity; assay: In vivo activity-based nanosensors, urinary reporters by LC-MS/MS; set-up: species or system mouse; details: within 3 days of treatment initiation; 20 mg/kg daily oral gavage
# Procedure: The urinary reporter glutamate-fibrinopeptide B (Glu-Fib) was mass barcoded for detection by mass spectrometry. Nanosensors were dosed (50 μL total volume, 20 μM each nanosensor) in mannitol buffer (0.28 M mannitol, 5 mM sodium phosphate monobasic, 15 mM sodium phosphate dibasic, pH 7.0-7.5) by intratracheal intubation. Anesthesia was induced by isoflurane inhalation, and mice were monitored during recovery. For intratracheal instillation, a volume of 50 μL was administered by passive inhalation following intratracheal intubation with a 22G flexible plastic catheter (Exel). […]
# LC-MS/MS was performed by Syneos Health using a Sciex™ 6500 triple quadrupole instrument. […] Samples were extracted by solid-phase extraction and analyzed by multiple reaction monitoring by LC-MSMS to quantify concentration of each Glu-Fib mass variant. Analyte quantities were normalized to a spiked-in internal standard and concentrations were calculated from a standard curve using peak area ratio (PAR) to the internal standard. […]
# Analyses of urinary reporter data were conducted using the analytic pipelines of the protease activity analysis (PAA) package [52], a publicly available Python package designed to process and visualize enzymatic activity datasets. […] Ten independent train-test trials were run for each classification problem, and classification performance was evaluated with ROC statistics. […]
# [5] = system: MMP activity in Hi-Myc prostate tissue sections; assay: AZP staining of fresh-frozen Hi-Myc prostate sections; type: biochemical, mouse
# Source text: It was unknown whether AZPs could enable in situ localization of the cleavage of peptides discovered in a screen of bulk homogenates. We therefore synthesized a new AZP (PZ19: SEQ ID NO:186) and applied it to fresh-frozen sections of prostates from Hi-Myc mice (FIG. 21a). With the exception of the protease-cleavable linker and fluorophore, PZ19 was identical in design to the serine protease-responsive PZ2. […] PZ19 labeling was abrogated by the MMP inhibitor marimastat (FIG. 21b middle row), though the free polyR control was unchanged.
# It was unknown whether AZPs could be used in conjunction with antibodies to enable dual zymography and immunofluorescence labeling. […] Further, PZ19 labeling and co-localization with Ki67 was abrogated by addition of marimastat (FIG. 21d).
# [6] = system: human PCa tissue microarray; assay: AZP staining of fresh-frozen human PCa tissue microarray (TMA); type: biochemical; details: for labeling of PCa tissue relative to normal prostates: AZP signal normalized to polyR, normal n=4, PCa n=24 cores; for labeling with vs without broad-spectrum cocktail of protease inhibitors: consecutive TMA sections
# Source text: Two AZPs incorporating MMP-responsive substrates, PZ16 (SEQ ID NO:184) and PZ19, and two AZPs incorporating serine protease-responsive substrates, Z2 (SEQ ID NO:172) and PZ11 (SEQ ID NO:180), were selected for evaluation. We applied these probes, along with a free polyR control, to a frozen human PCa TMA that contained biopsies from normal prostates and PCa tumors across a range of Gleason scores.
# To determine whether AZP binding was dependent on proteolysis, for each probe a consecutive TMA section was treated with a broad-spectrum cocktail of protease inhibitors.
# We then investigated whether AZPs preferentially labeled PCa tissue relative to normal prostates. […] AZP activation and tissue staining across the TMA was quantitatively assessed by normalizing AZP signal intensity to polyR signal to account for differing binding propensities within a single core and across individual specimens. […] We further assessed the classification accuracy of these two in situ probes using receiver operating characteristic (ROC) curves.
# [7] = system: T1, PZ2, Cy5-labeled AZP containing a serine protease-cleavable linker
# T1 sequence: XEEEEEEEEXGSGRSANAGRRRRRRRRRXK
# [8] = system: T2, quenched probe Q1, incorporating the substrate S1
# T2 sequence: GGPQGIWGQC
compound,measurement,setting,value
"Cl.NCCc1ccc(S(=O)(=O)F)cc1 [AEBSF, 4-(2-aminoethyl)benzenesulfonyl fluoride hydrochloride, reference compound]",effect of inhibitor on cleavage of PM19,[1],minimally affected cleavage
same,effect of inhibitor on Z1 tissue labeling,[2],completely abrogated Z1 tissue labeling to the level of broad-spectrum inhibition
same,effect of inhibitor on PZ2 staining,"[3]; four-hour incubation, mouse colon",abrogated
CCc1cc2c(cc1N1CCC(N3CCOCC3)CC1)C(C)(C)c1[nH]c3cc(C#N)ccc3c1C2=O [alectinib],reporters exhibiting differential enrichment in the urine of vehicle- versus alectinib-treated mice,[4],12 of 14
"CNC(=O)[C@@H](NC(=O)[C@H](CC(C)C)[C@H](O)C(=O)NO)C(C)(C)C [marimastat, reference compound]",effect of inhibitor on cleavage of PM19,[1],fully inhibited cleavage of PM19
same,effect of inhibitor on Z1 tissue labeling,[2],did reduce Z1 signal
same,effect of inhibitor on PZ19 labeling,[5]; Hi-Myc prostate sections,abrogated
U-eeeeeeee-X-GGLVPRGSGG-rrrrrrrrr-X-K(Cy5) (Suc-[dE][dE][dE][dE][dE][dE][dE][dE][Ahx]GGLVPRGSGG[dR][dR][dR][dR][dR][dR][dR][dR][dR][Ahx]K(Cy5)) [Z2],labeling of PCa tissue relative to normal prostates,[6],preferentially label PCa tissue
same,labeling with vs without broad-spectrum cocktail of protease inhibitors,[6],protease-dependent labeling
U-eeeeeeee-X-GPVPLSLVMG-rrrrrrrrr-X-K(5FAM) (Suc-[dE][dE][dE][dE][dE][dE][dE][dE][Ahx]GPVPLSLVMG[dR][dR][dR][dR][dR][dR][dR][dR][dR][Ahx]K(5FAM)) [PZ19],labeling of PCa tissue relative to normal prostates,[6],no significant difference between PCa and normal cores
same,labeling with vs without broad-spectrum cocktail of protease inhibitors,[6],no difference between the uninhibited and inhibited conditions
same,probe labeling of Hi-Myc prostate sections,[5]; fresh-frozen sections,PZ19 labeling in histologically normal glands of the Hi-Myc prostate
same,PZ19 labeling of normal mouse prostate,[5]; histologically similar region of healthy prostate,reduced PZ19 labeling
U-eeeeeeee-X-GSGRSANAG-rrrrrrrrr-X-K(Cy5) (Suc-[dE][dE][dE][dE][dE][dE][dE][dE][Ahx]GSGRSANAG[dR][dR][dR][dR][dR][dR][dR][dR][dR][Ahx]K(Cy5)) [PZ2],probe staining of fresh-frozen mouse colon sections,[3]; four-hour incubation,strong PZ2 staining
same,fluorescence of colon sections treated with intact probe,"[3]; intact, 30 minutes",minimal fluorescence
same,fluorescence of colon sections treated with pre-cleaved probe,"[3]; pre-cleaved with mesotrypsin (PRSS3), 30 minutes",notable fluorescent signal throughout
"U-eeeeeeee-X-GsGrsanaG-rrrrrrrrr-X-K(Cy5) (Suc-[dE][dE][dE][dE][dE][dE][dE][dE][Ahx]G[dS]G[dR][dS][dA][dN][dA]G[dR][dR][dR][dR][dR][dR][dR][dR][dR][Ahx]K(Cy5)) [dPZ2, AZP with a non-cleavable d-stereoisomer linker]",probe staining of fresh-frozen mouse colon sections,[3]; four-hour incubation,no Cy5 fluorescence
UeeeeeeeeXGGLGPKGQTGGrrrrrrrrrX-k(Cy3) (Suc-[dE][dE][dE][dE][dE][dE][dE][dE][Ahx]GGLGPKGQTGG[dR][dR][dR][dR][dR][dR][dR][dR][dR][Ahx][dK](Cy3)) [Z7],AZP labeling of Eml4-Alk lung tissue,[2],"protease-mediated, tumor-specific labeling"
UeeeeeeeeXGGPQGIWGQGrrrrrrrrrX-k(Cy5) (Suc-[dE][dE][dE][dE][dE][dE][dE][dE][Ahx]GGPQGIWGQG[dR][dR][dR][dR][dR][dR][dR][dR][dR][Ahx][dK](Cy5)) [Z1],Z1 staining in CD31-high cells of Eml4-Alk sections relative to CD31-high healthy and CD31-low cells,[2]; Eml4-Alk and healthy lung sections,significantly increased
same,Z1 intensity in vimentin-positive spindle-like cells relative to E-cadherin-positive or vimentin-positive rounded cells,[2]; Eml4-Alk tumors,increased Z1 intensity
same,Z1 staining of Eml4-Alk tumors,[2]; Eml4-Alk tumors vs free polyR binding control,"strong, spindle-like staining"
same,Z1 staining of healthy lungs,[2]; healthy lung sections,undetectable
same,AZP labeling of Eml4-Alk lung tissue,[2],"protease-mediated, tumor-specific labeling"
same,tissue labeling pattern of intact Z1,"[2]; intact Z1 1 μmol/L, 37° C. 4 hours, Eml4-Alk tumors",maintained its spindle-like spatial pattern
same,tissue labeling pattern of FAP-precleaved Z1,"[2]; precleaved with recombinant FAP, 0.1 μM, Eml4-Alk tumors","diffuse, uniform labeling that mirrored that of a free polyR"
mesotrypsin (PRSS3),"in vitro pre-cleavage of the probe, read out by tissue fluorescence",[7],"We therefore pre-cleaved PZ2 with a serine protease, mesotrypsin (PRSS3)"
recombinant fibroblast activation protein (FAP),fluorescence activation monitored over time (cleavage of quenched probe),[8],Fibroblast activation protein (FAP) cleaves S1 in vitro
